We go through 1 molecule from patent US11491117B2, “Compounds for the prevention and treatment of glucose intolerance related conditions and obesity” (SORBONNE UNIVERSITÉ, priority 2017, dated 2022).

Molecules are shown by their SMILES.

This experiment has as its system C57BL/6J mice fed control chow diet (CHD) or high fat diet (HFD). Put plainly: Chronic subcutaneous infusion in mice fed control chow or high fat diet: body growth, glucose homeostasis (IPGTT), insulin secretion, organ weight, liver triglycerides. The class given is in vivo, mouse. How it is done:
Six weeks-old C57BL/6J male mice (Janvier Labs, Courtaboeuf, France) were received and acclimated in specific pathogen free (SPF) maintenance condition. Mice had free access to a standard chow diet (R04-40, Safe, Augy, France) and were kept on 12 h light/dark cycle. After one week, a group of 12 mice was fed control carbohydrate diet (CHD) (D 12450Ki, Research diets, NJ) and a group of 12 mice was fed high fat (60% fat and sucrose) diet (HFD) (D12492i, Research diets, NJ).
After three weeks of metabolite treatment (i.e. four weeks of HFD feeding) an intra-peritoneal glucose tolerance test (IPGTT) (2 g/kg) was performed in conscious mice following an overnight fast. Blood was collected from the tail vein before glucose injection and 15, 30, 60 and 120 minutes afterwards. Additional blood samples were collected during the IPGTT in GK rats 15, 90, 180 and 240 minutes after glucose injection. Blood glucose levels were determined using an Accu-Check® Performa (Roche Diagnostics, Meylan, France). Additional blood samples were collected at base line and 30 minutes after glucose injection in Microvette® CB 300 Lithium Heparin (Sarstedt, Marnay, France). Plasma was separated by centrifugation and stored at −80° C. until insulin radioimmunoassay. Evaluation of overall glucose tolerance was obtained from cumulative glycemia (GCum) and the ΔG, which were determined by the total increment of plasma glucose values during the IPGTT (GCum) and the cumulative glycemia during the test above baseline (ΔG). After six weeks of metabolite treatment, mice were killed by decapitation and organ were dissected and weighed. Half of liver, fat and pancreas samples were snap frozen in liquid nitrogen and stored at −80° C. for molecular studies, and the second half processed for histopathology. All procedures were authorized following review by the institutional ethic committee and carried out under national license condition (Ref 00486.02).
Blood glucose was measured using an Accu-Check® Performa (Roche Diagnostics, Meylan, France) and plasma insulin was determined using Insulin ELISA kits (Mercodia, Uppsala, Sweden). For determination of liver triglycerides, liver samples (100 mg) were homogenized and incubated in NonidetP-40 (5%) and supernatants containing triglycerides were collected. Triglycerides concentration was quantified in the supernatant fraction using a colorimetric assay (ab65336, Abcam, Paris, France) by measuring OD at 570 nm. The ratio NAD/NADH was determined using a quantification kit (MAK037; SigmaAldrich, St Quentin, France) on extracts prepared from 20 mg pancreas tissue. Samples were homogenized in the extraction buffer and clarified by centrifugation. Supernatant was deproteinized by filtration through a 10-kDa cutoff spin filter (Millipore SAS, Molsheim, France). The assay was then performed according to the manufacturer's instructions.
As expected, mice fed HFD rapidly gained more weight than mice fed control diet and developed fasting hyperglycemia and marked glucose intolerance (FIG. 1A-1F).

In the case of `Cc1ccc(O)c(O)c1` [4-MC, 4-methylcatechol], under “both diet groups (CHD, HFD), 6 weeks, vs saline”, the “adiposity index (retroperitoneal fat pads to body weight)” value is reported as “significant reduction”. The liver triglycerides content result (both diet groups, vs saline) is “significant reduction”. In addition, for the setting “both diets, IPGTT, vs saline”, the cumulative glycemia result is “reduced”, the glucose tolerance entry is reported as “improved glucose tolerance” and the ΔG entry is given as “reduced”. Also, for the setting “both diets, vs saline”, the fasting glycemia result is given as “reduced” and the insulin secretion result is given as “increased insulin secretion”. In addition, under “mice fed HFD or control diet”, the liver weight entry is listed as “significant reduction” and the pancreas weight result was “increased pancreas weight”. Moreover, where the note is “mice fed chow diet or HFD, chronic treatment, vs saline”, the body growth result is recorded as “strong reduction”. Moreover, the BMI entry (mice fed chow diet or HFD, vs saline) was “strong reduction”.
